Results as given in the supplement of paper PMC10307832.

Columns and labels:
Assay in all cases: relative viability (nuclei count vs DMSO), 5 days (fraction); higher = more cells survive
NCI-H1355 = system: NCI-H1355
Outline: (§1)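 Lung cancer cell lines in 1536-well plates got either a single drug or a fixed anchor-drug dose together with five library-drug doses (not always all listed) in √10 steps, by pin tool, on the day after seeding. Nuclei were counted after 5 days, and relative viability is the treated-to-vehicle ratio of nuclei counts. Values are medians of duplicate plates.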

LCLC-103H = system: LCLC-103H
Outline: as §1

NCI-H522 = system: NCI-H522
Outline: as §1

NCI-H1648 = system: NCI-H1648
Outline: as §1

NCI-H520 = system: NCI-H520
Outline: as §1

Calu-6 = system: Calu-6
Outline: as §1

EBC-1 = system: EBC-1
Outline: as §1

NCI-H1703 = system: NCI-H1703
Outline: as §1

NCI-H1299 = system: NCI-H1299
Outline: as §1

A549 = system: A549
Outline: as §1

IA-LM = system: IA-LM
Outline: as §1

`O=C(O)c1ccc(-c2c[nH]c3ncc(-c4ccccc4)cc23)cc1C1CCCC1` + Nc1nc2[nH]cc(CCc3ccc(C(=O)N[C@@H](CCC(=O)O)C(=O)O)cc3)c2c(=O)[nH]1 [Pemetrexed] (partner 0.2 µM) gave a relative viability (NCI-H1355; first compound 0.04 µM) of 0.991, a relative viability (NCI-H1355; first compound 0.1265 µM) of 1.13 and a relative viability (NCI-H1355; first compound 0.4 µM) of 1.12. It also gave a relative viability (NCI-H1355; first compound 1.265 µM) of 0.756, a relative viability (LCLC-103H; first compound 0.04 µM) of 0.487 and a relative viability (LCLC-103H; first compound 0.1265 µM) of 0.463. For the same compound, the relative viability (LCLC-103H; first compound 0.4 µM) was 0.495, the relative viability (LCLC-103H; first compound 1.265 µM) was 0.481 and the relative viability (NCI-H522; first compound 0.04 µM) was 0.829. The relative viability (NCI-H522; first compound 0.1265 µM) was 1.04, the relative viability (NCI-H522; first compound 0.4 µM) was 0.812 and the relative viability (NCI-H522; first compound 1.265 µM) was 0.928. For the same compound, the relative viability (NCI-H1648; first compound 0.04 µM) was 0.732, the relative viability (NCI-H1648; first compound 0.1265 µM) was 0.853 and the relative viability (NCI-H1648; first compound 0.4 µM) was 0.681. The relative viability (NCI-H520; first compound 0.04 µM) was 0.789, the relative viability (NCI-H520; first compound 0.1265 µM) was 0.633 and the relative viability (NCI-H520; first compound 0.4 µM) was 0.655. For the same compound, the relative viability (NCI-H520; first compound 1.265 µM) was 0.474.
`O=C(O)c1ccc(-c2c[nH]c3ncc(-c4ccccc4)cc23)cc1C1CCCC1` + CC(=O)c1c(C)c2cnc(Nc3ccc(N4CCNCC4)cn3)nc2n(C2CCCC2)c1=O [Palbociclib] (partner 0.5 µM) showed a relative viability (NCI-H1355; first compound 0.04 µM) of 0.393, a relative viability (NCI-H1355; first compound 0.1265 µM) of 0.406 and a relative viability (NCI-H1355; first compound 0.4 µM) of 0.407. The relative viability (NCI-H1355; first compound 1.265 µM) was 0.395, the relative viability (LCLC-103H; first compound 0.04 µM) was 0.412 and the relative viability (LCLC-103H; first compound 0.1265 µM) was 0.486. The relative viability (LCLC-103H; first compound 0.4 µM) was 0.465, the relative viability (LCLC-103H; first compound 1.265 µM) was 0.469 and the relative viability (NCI-H522; first compound 0.04 µM) was 0.977. It also gave a relative viability (NCI-H522; first compound 0.1265 µM) of 1.02, a relative viability (NCI-H522; first compound 0.4 µM) of 1.06 and a relative viability (NCI-H522; first compound 1.265 µM) of 1.1. For the same compound, the relative viability (NCI-H1648; first compound 0.04 µM) was 0.285, the relative viability (NCI-H1648; first compound 0.1265 µM) was 0.294 and the relative viability (NCI-H1648; first compound 0.4 µM) was 0.27. It also gave a relative viability (NCI-H520; first compound 0.04 µM) of 0.192, a relative viability (NCI-H520; first compound 0.1265 µM) of 0.217 and a relative viability (NCI-H520; first compound 0.4 µM) of 0.226. The relative viability (NCI-H520; first compound 1.265 µM) was 0.182.
With `O=C(O)c1ccc(-c2c[nH]c3ncc(-c4ccccc4)cc23)cc1C1CCCC1` + CC(=O)Nc1cccc(-n2c(=O)n(C3CC3)c(=O)c3c(Nc4ccc(I)cc4F)n(C)c(=O)c(C)c32)c1 [Trametinib] (partner 0.02 µM) the relative viability (NCI-H1355; first compound 0.04 µM) was 0.42, the relative viability (NCI-H1355; first compound 0.1265 µM) was 0.412 and the relative viability (NCI-H1355; first compound 0.4 µM) was 0.459. It also gave a relative viability (NCI-H1355; first compound 1.265 µM) of 0.391, a relative viability (LCLC-103H; first compound 0.04 µM) of 0.65 and a relative viability (LCLC-103H; first compound 0.1265 µM) of 0.697. The relative viability (LCLC-103H; first compound 0.4 µM) was 0.68, the relative viability (LCLC-103H; first compound 1.265 µM) was 0.644 and the relative viability (NCI-H522; first compound 0.04 µM) was 0.696. It also gave a relative viability (NCI-H522; first compound 0.1265 µM) of 0.761, a relative viability (NCI-H522; first compound 0.4 µM) of 0.763 and a relative viability (NCI-H522; first compound 1.265 µM) of 0.768. For the same compound, the relative viability (NCI-H1648; first compound 0.04 µM) was 0.589, the relative viability (NCI-H1648; first compound 0.1265 µM) was 0.448 and the relative viability (NCI-H1648; first compound 0.4 µM) was 0.494. For the same compound, the relative viability (NCI-H520; first compound 0.04 µM) was 0.673, the relative viability (NCI-H520; first compound 0.1265 µM) was 0.775 and the relative viability (NCI-H520; first compound 0.4 µM) was 0.672. The relative viability (NCI-H520; first compound 1.265 µM) was 0.437.
With `NC(=O)Nc1cc(-c2cccc(F)c2)sc1C(=O)N[C@H]1CCCNC1` [AZD7762] + CC(=O)c1c(C)c2cnc(Nc3ccc(N4CCNCC4)cn3)nc2n(C2CCCC2)c1=O [Palbociclib] (partner 0.5 µM) the relative viability (NCI-H1355; first compound 0.01 µM) was 0.415, the relative viability (NCI-H1355; first compound 0.03162 µM) was 0.389 and the relative viability (NCI-H1355; first compound 0.1 µM) was 0.389. It also gave a relative viability (NCI-H1355; first compound 0.3162 µM) of 0.418, a relative viability (NCI-H1355; first compound 1 µM) of 0.39 and a relative viability (LCLC-103H; first compound 0.01 µM) of 0.438. It also gave a relative viability (LCLC-103H; first compound 0.03162 µM) of 0.479, a relative viability (LCLC-103H; first compound 0.1 µM) of 0.639 and a relative viability (LCLC-103H; first compound 0.3162 µM) of 0.449. For the same compound, the relative viability (LCLC-103H; first compound 1 µM) was 0.544, the relative viability (NCI-H522; first compound 0.01 µM) was 1.07 and the relative viability (NCI-H522; first compound 0.03162 µM) was 0.987. It also gave a relative viability (NCI-H522; first compound 0.1 µM) of 0.999, a relative viability (NCI-H522; first compound 0.3162 µM) of 1.09 and a relative viability (NCI-H522; first compound 1 µM) of 1. For the same compound, the relative viability (NCI-H1648; first compound 0.01 µM) was 0.394, the relative viability (NCI-H1648; first compound 0.03162 µM) was 0.245 and the relative viability (NCI-H1648; first compound 0.1 µM) was 0.277. For the same compound, the relative viability (NCI-H1648; first compound 0.3162 µM) was 0.27, the relative viability (NCI-H1648; first compound 1 µM) was 0.283 and the relative viability (NCI-H520; first compound 0.01 µM) was 0.244. For the same compound, the relative viability (NCI-H520; first compound 0.03162 µM) was 0.255, the relative viability (NCI-H520; first compound 0.1 µM) was 0.189 and the relative viability (NCI-H520; first compound 0.3162 µM) was 0.232. For the same compound, the relative viability (NCI-H520; first compound 1 µM) was 0.189.
Compound `CC1(C)CCC(c2ccc(Cl)cc2)=C(CN2CCN(c3ccc(C(=O)NS(=O)(=O)c4ccc(N[C@H](CCN5CCOCC5)CSc5ccccc5)c(S(=O)(=O)C(F)(F)F)c4)cc3)CC2)C1` [Navitoclax] + C[C@]1(O)C[C@@H](c2nc(-c3ccc4ccc(-c5ccccc5)nc4c3)c3c(N)nccn32)C1 [Linsitinib] (partner 1 µM) has a relative viability (Calu-6; first compound 0.005 µM) of 0.927, a relative viability (Calu-6; first compound 0.01581 µM) of 0.984 and a relative viability (Calu-6; first compound 0.05 µM) of 0.965. The relative viability (Calu-6; first compound 0.1581 µM) was 0.903, the relative viability (Calu-6; first compound 0.5 µM) was 0.918 and the relative viability (EBC-1; first compound 0.005 µM) was 0.893. For the same compound, the relative viability (EBC-1; first compound 0.01581 µM) was 1.09, the relative viability (EBC-1; first compound 0.05 µM) was 0.974 and the relative viability (EBC-1; first compound 0.1581 µM) was 1.05. It also gave a relative viability (EBC-1; first compound 0.5 µM) of 0.86, a relative viability (NCI-H1355; first compound 0.005 µM) of 0.831 and a relative viability (NCI-H1355; first compound 0.01581 µM) of 0.892. For the same compound, the relative viability (NCI-H1355; first compound 0.05 µM) was 0.817, the relative viability (NCI-H1355; first compound 0.1581 µM) was 0.775 and the relative viability (NCI-H1355; first compound 0.5 µM) was 0.834. The relative viability (LCLC-103H; first compound 0.005 µM) was 1.07, the relative viability (LCLC-103H; first compound 0.01581 µM) was 1.19 and the relative viability (LCLC-103H; first compound 0.05 µM) was 1.09. The relative viability (LCLC-103H; first compound 0.1581 µM) was 1.03, the relative viability (LCLC-103H; first compound 0.5 µM) was 1.02 and the relative viability (NCI-H1703; first compound 0.005 µM) was 0.935. The relative viability (NCI-H1703; first compound 0.01581 µM) was 1, the relative viability (NCI-H1703; first compound 0.05 µM) was 1.19 and the relative viability (NCI-H1703; first compound 0.1581 µM) was 1. It also gave a relative viability (NCI-H1703; first compound 0.5 µM) of 0.813, a relative viability (NCI-H1299; first compound 0.005 µM) of 0.949 and a relative viability (NCI-H1299; first compound 0.01581 µM) of 1. For the same compound, the relative viability (NCI-H1299; first compound 0.05 µM) was 0.878, the relative viability (NCI-H1299; first compound 0.1581 µM) was 0.981 and the relative viability (NCI-H1299; first compound 0.5 µM) was 0.984. The relative viability (A549; first compound 0.005 µM) was 0.681, the relative viability (A549; first compound 0.01581 µM) was 0.669 and the relative viability (A549; first compound 0.05 µM) was 0.511. The relative viability (A549; first compound 0.1581 µM) was 0.558, the relative viability (A549; first compound 0.5 µM) was 0.591 and the relative viability (IA-LM; first compound 0.005 µM) was 0.551. It also gave a relative viability (IA-LM; first compound 0.01581 µM) of 0.793, a relative viability (IA-LM; first compound 0.05 µM) of 0.537 and a relative viability (IA-LM; first compound 0.1581 µM) of 0.587. It also gave a relative viability (IA-LM; first compound 0.5 µM) of 0.654, a relative viability (NCI-H520; first compound 0.005 µM) of 0.891 and a relative viability (NCI-H520; first compound 0.01581 µM) of 1.15. The relative viability (NCI-H520; first compound 0.05 µM) was 1.12, the relative viability (NCI-H520; first compound 0.1581 µM) was 0.832 and the relative viability (NCI-H520; first compound 0.5 µM) was 0.771.
